The text below walks through data of patent US20260240842A1, “METHODS TO PREVENT THERAPY RESISTANCE IN MELANOMA VIA BLOCKING GENOMIC INSTABILITY” (THE REGENTS OF THE UNIVERSITY OF CALIFORNIA, priority 2022, published 2026).

The subject of this test is p-DNA-PKcs (S2056). As to the kind of experiment: Immunofluorescence of p-DNA-PKcs (S2056) nuclear foci in early on-treatment PDX tumors. The following applies: with or without MEKi; Mel_PDX1, 11 days; FIG. 13F. Format: in vivo, NSG mice. An excerpt:
FIGS. 13A-13H. In vivo impacts of DNA-PKi when combined with MAPKi. FIGS. 13A and 13B: Long-term follow-up of tumor volumes (13A, BRAFi+MEKi, n=5 tumors; BRAFi+MEKi+DNA-PKi, n=6 tumors) (13B, MEKi, n=6 tumors; MEKi+DNAP-PKi, n=6 tumors) and average mice body weights for 13A and 13B. Related to experiments in FIGS. 7B and 7E, respectively. FIGS. 13C and 13D, Tumor volumes (mean±SEM) of two examples of tumor models treated short-term with vehicle or indicated single versus combined agents. Inhibitors and dosages are identical to those in FIGS. 7C and 7E, respectively. The numbers of tumors and their sizes are shown in the photographs (right) taken at the times of tumor harvest (end points). FIGS. 13E to 13G: Immunofluorescence of p-ERK (13E), p-DNA-PKcs (S2056) (13F), or γH2AX (13G) levels in Mel_PDX1 tumor model, treated with vehicle or indicated single versus combined agents for 11 days (shown in 13C). DAPI, nuclear stain. Scale bar, 50 μm (13E) and 20 μm (13F and 13G). Representative images shown for two tumors analyzed per group. Quantification of p-DNA-PKcs signals obtained by taking the average of positively stained foci per nucleus (13F, representative of 4 fields). Quantification of γH2AX signals analyzed either by percentage of cells with γH2AX foci or percentage of cells with greater than 5 γH2AX foci (13G, representative of 4 fields). […]

For `O=c1cc(N2CCOCC2)oc2c1ccc1ccccc12` [NU7026], the “nuclear p-DNA-PKCS foci” value is “suppressed nuclear p-DNA-PKCS foci”.
